≈ marks a conversion by molar mass, not a printed value. Positions of bridges follow the written chain, without caps; N, C: chain ends. Non-standard residues stand in square brackets, D forms with d. Residues, ends and D or L forms follow the SMILES beside them. dNMeF = CN[C@H](Cc1ccccc1)C(=O)O
Columns and labels:
Staphylococcus aureus [1] = test: Antibacterial activity against methicillin-resistant Staphylococcus aureus after 24 hrs; assay type: functional
[2] = system: Staphylococcus saprophyticus; test: Antibacterial activity against Staphylococcus saprophyticus ATCC 49907 after 24 hrs; assay type: functional; settings: ATCC 49907, 24 h
Enterococcus faecalis [3] = test: Antibacterial activity against vancomycin-resistant Enterococcus faecalis ATCC 29212 after 24 hrs; assay type: functional; settings: ATCC 29212, 24 h
Staphylococcus aureus [4] = test: Antibacterial activity against methicillin-resistant Staphylococcus aureus isolate 42412 after 24 hrs; assay type: functional; settings: isolate 42412, 24 h
[5] = system: Bacillus subtilis (Bacillus subtilis); test: Antibacterial activity against Bacillus subtilis ATCC 6633 after 24 hrs; settings: ATCC 6633, 24 h
Staphylococcus aureus [6] = test: Antibacterial activity against Staphylococcus aureus 4299 after 24 hrs; assay type: functional; settings: Staphylococcus aureus, 4299, 24 h
Staphylococcus aureus [7] = test: Antibacterial activity against methicillin-resistant Staphylococcus aureus ATCC 700699 after 24 hrs; assay type: functional; settings: ATCC 700699, 24 h
[8] = system: Staphylococcus epidermidis; test: Antibacterial activity against Staphylococcus epidermidis 12228 after 24 hrs; assay type: functional; settings: Staphylococcus epidermidis, 12228, 24 h
Bacillus cereus = test: Antibacterial activity against Bacillus cereus ATCC 11788 after 24 hrs; assay type: functional; settings: ATCC 11788, 24 h
Staphylococcus aureus [9] = test: Antibacterial activity against methicillin-resistant Staphylococcus aureus isolate 21455 after 24 hrs; assay type: functional; settings: isolate 21455, 24 h
Enterococcus faecalis [10] = test: Antibacterial activity against vancomycin-resistant Enterococcus faecalis ATCC 700802 after 24 hrs; assay type: functional; settings: ATCC 700802, 24 h
Staphylococcus aureus [11] = test: Antibacterial activity against methicillin-resistant Staphylococcus aureus isolate 1003 after 24 hrs; assay type: functional; settings: isolate 1003, 24 h
Enterococcus faecalis [12] = test: Antibacterial activity against vancomycin-resistant Enterococcus faecalis isolate 1002 after 24 hrs; assay type: functional; settings: isolate 1002, 24 h
[13] = system: Staphylococcus saprophyticus; test: Antibacterial activity against Staphylococcus saprophyticus ATCC 49453 after 24 hrs; assay type: functional; settings: ATCC 49453, 24 h
Enterococcus faecalis [14] = test: Antibacterial activity against vancomycin-resistant Enterococcus faecalis isolate 1004 after 24 hrs; assay type: functional; settings: isolate 1004, 24 h
Enterococcus faecalis [15] = test: Antibacterial activity against vancomycin-resistant Enterococcus faecalis isolate 1001 after 24 hrs; assay type: functional; settings: isolate 1001, 24 h
Staphylococcus aureus [16] = test: Antibacterial activity against methicillin-resistant Staphylococcus aureus ATCC 33591 after 24 hrs; assay type: functional; settings: ATCC 33591, 24 h
[17] = system: Staphylococcus saprophyticus; test: Antibacterial activity against Staphylococcus saprophyticus ATCC BAA 750 after 24 hrs; assay type: functional; settings: ATCC BAA 750, 24 h
[18] = system: Staphylococcus saprophyticus; test: Antibacterial activity against Staphylococcus saprophyticus ATCC 15305 after 24 hrs; assay type: functional; settings: ATCC 15305, 24 h
Staphylococcus aureus [19] = test: Antibacterial activity against Staphylococcus aureus ATCC 29213 after 24 hrs; assay type: functional; settings: ATCC 29213, 24 h
Enterococcus faecalis [20] = test: Antibacterial activity against vancomycin-resistant Enterococcus faecalis isolate 1008 after 24 hrs; assay type: functional; settings: isolate 1008, 24 h
Staphylococcus aureus [21] = test: Antibacterial activity against methicillin-sensitive Staphylococcus aureus after 24 hrs; assay type: functional

Compound | MIC [2] | MIC (Enterococcus faecalis [3]) | MIC (Staphylococcus aureus [4]) | MIC [5] | MIC (Staphylococcus aureus [6]) | MIC (Staphylococcus aureus [7]) | MIC [8] | MIC (Bacillus cereus) | MIC (Staphylococcus aureus [9]) | MIC (Enterococcus faecalis [10]) | MIC (Staphylococcus aureus [11]) | MIC (Enterococcus faecalis [12]) | MIC [13] | MIC (Enterococcus faecalis [14]) | MIC (Enterococcus faecalis [15]) | MIC (Staphylococcus aureus [16]) | MIC [17] | MIC [18] | MIC (Staphylococcus aureus [19]) | MIC (Enterococcus faecalis [20]) | also measured
CC[C@@H](C)[C@@H](NC(=O)[C@@H](CCC(N)=O)NC(=O)[C@H](CO)NC(=O)[C@@H](NC(=O)[C@@H](Cc1ccccc1)NC)[C@@H](C)CC)C(=O)N[C@H](C(=O)N[C@@H](CO)C(=O)N[C@H]1C(=O)N[C@@H](C)C(=O)N[C@@H](Cc2ccccc2)C(=O)N[C@@H]([C@@H](C)CC)C(=O)O[C@H]1C)[C@@H](C)CC |  |  |  |  |  |  |  |  |  |  |  |  |  |  |  |  |  |  |  |  | MIC (Staphylococcus aureus [1]): 2 µg/mL (≈ 1.62 µM)
CC[C@@H](C)[C@@H](NC(=O)[C@@H](CCCNC(=N)N)NC(=O)[C@H](CCCNC(=N)N)NC(=O)[C@@H](NC(=O)[C@@H](Cc1ccccc1)NC)[C@@H](C)CC)C(=O)N[C@H](C(=O)N[C@@H](CO)C(=O)N[C@H]1C(=O)N[C@@H](C)C(=O)N[C@@H](CC(C)C)C(=O)N[C@@H]([C@@H](C)CC)C(=O)O[C@H]1C)[C@@H](C)CC (H-[dNMeF]IR[dR][dI]IS[dT]ALI; ester 8-C) | < 0.0625 µg/mL | 1 µg/mL (≈ 0.77 µM) | 0.25 µg/mL (≈ 0.193 µM) | < 0.0625 µg/mL | 0.25 µg/mL (≈ 0.193 µM) | 0.5 µg/mL (≈ 0.385 µM) | < 0.0625 µg/mL | 1 µg/mL (≈ 0.77 µM) | 0.5 µg/mL (≈ 0.385 µM) | 2 µg/mL (≈ 1.54 µM) | 1 µg/mL (≈ 0.77 µM) | 1 µg/mL (≈ 0.77 µM) | < 0.0625 µg/mL | 0.5 µg/mL (≈ 0.385 µM) | 1 µg/mL (≈ 0.77 µM) | 0.25 µg/mL (≈ 0.193 µM) | < 0.0625 µg/mL | < 0.0625 µg/mL | 0.25 µg/mL (≈ 0.193 µM) | 0.5 µg/mL (≈ 0.385 µM) | 
CC[C@@H](C)[C@@H](NC(=O)[C@@H](CCC(N)=O)NC(=O)[C@H](CCCNC(=N)N)NC(=O)[C@@H](NC(=O)[C@@H](Cc1ccccc1)NC)[C@@H](C)CC)C(=O)N[C@H](C(=O)N[C@@H](CO)C(=O)N[C@H]1C(=O)N[C@@H](C)C(=O)N[C@@H](CC(C)C)C(=O)N[C@@H]([C@@H](C)CC)C(=O)O[C@H]1C)[C@@H](C)CC (H-[dNMeF]IR[dQ][dI]IS[dT]ALI; ester 8-C) | < 0.0625 µg/mL | 0.5 µg/mL (≈ 0.394 µM) | < 0.0625 µg/mL | < 0.0625 µg/mL | 0.125 µg/mL (≈ 0.0984 µM) | 0.5 µg/mL (≈ 0.394 µM) | < 0.0625 µg/mL | < 0.0625 µg/mL | 0.0312 µg/mL (≈ 0.0246 µM) | 0.5 µg/mL (≈ 0.394 µM) | < 0.0625 µg/mL | 0.5 µg/mL (≈ 0.394 µM) | < 0.0625 µg/mL | < 0.0625 µg/mL | 0.25 µg/mL (≈ 0.197 µM) | 0.125 µg/mL (≈ 0.0984 µM) | < 0.0625 µg/mL | < 0.0625 µg/mL | 0.25 µg/mL (≈ 0.197 µM) | 0.125 µg/mL (≈ 0.0984 µM) | 
CC[C@@H](C)[C@@H](NC(=O)[C@@H](CCCNC(=N)N)NC(=O)[C@H](CO)NC(=O)[C@@H](NC(=O)[C@@H](Cc1ccccc1)NC)[C@@H](C)CC)C(=O)N[C@H](C(=O)N[C@@H](CO)C(=O)N[C@H]1C(=O)N[C@@H](C)C(=O)N[C@@H]([C@@H](C)CC)C(=O)N[C@@H]([C@@H](C)CC)C(=O)O[C@H]1C)[C@@H](C)CC | < 0.0625 µg/mL | 0.25 µg/mL (≈ 0.203 µM) | < 0.0625 µg/mL | < 0.0625 µg/mL | < 0.0625 µg/mL | 0.25 µg/mL (≈ 0.203 µM) | < 0.0625 µg/mL | < 0.0625 µg/mL | 0.0312 µg/mL (≈ 0.0254 µM) | 0.25 µg/mL (≈ 0.203 µM) | < 0.0625 µg/mL | 1 µg/mL (≈ 0.813 µM) | < 0.0625 µg/mL | 0.5 µg/mL (≈ 0.407 µM) | 0.5 µg/mL (≈ 0.407 µM) | 0.125 µg/mL (≈ 0.102 µM) | < 0.0625 µg/mL | < 0.0625 µg/mL | 0.0625 µg/mL (≈ 0.0508 µM) | 0.5 µg/mL (≈ 0.407 µM) | 
CCC(C)[C@@H]1NC(=O)[C@H](C)NC(=O)[C@H](NC(=O)[C@H](CO)NC(=O)[C@@H](NC(=O)[C@H](NC(=O)[C@@H](CCC(N)=O)NC(=O)[C@H](CO)NC(=O)[C@@H](NC(=O)[C@@H](Cc2ccccc2)NC)[C@@H](C)CC)[C@H](C)CC)[C@@H](C)CC)[C@H](C)OC(=O)[C@H]([C@@H](C)CC)NC1=O (stereo partly drawn) |  |  |  |  |  |  |  |  |  |  |  |  |  |  |  |  |  |  |  |  | MIC (Staphylococcus aureus [21]): 0.063 µg/mL (≈ 0.0524 µM); MIC (Staphylococcus aureus [1]): 0.25 µg/mL (≈ 0.208 µM)
